What all share (type): cell-based
Assay [1] addresses T1, human TLR8 (Homo sapiens, UniProt Q9NR97).
T1 construct: host or cells: HEK-Blue cells (HEK293-derived reporter line)
T1 sequence (Q9NR97 27-1041): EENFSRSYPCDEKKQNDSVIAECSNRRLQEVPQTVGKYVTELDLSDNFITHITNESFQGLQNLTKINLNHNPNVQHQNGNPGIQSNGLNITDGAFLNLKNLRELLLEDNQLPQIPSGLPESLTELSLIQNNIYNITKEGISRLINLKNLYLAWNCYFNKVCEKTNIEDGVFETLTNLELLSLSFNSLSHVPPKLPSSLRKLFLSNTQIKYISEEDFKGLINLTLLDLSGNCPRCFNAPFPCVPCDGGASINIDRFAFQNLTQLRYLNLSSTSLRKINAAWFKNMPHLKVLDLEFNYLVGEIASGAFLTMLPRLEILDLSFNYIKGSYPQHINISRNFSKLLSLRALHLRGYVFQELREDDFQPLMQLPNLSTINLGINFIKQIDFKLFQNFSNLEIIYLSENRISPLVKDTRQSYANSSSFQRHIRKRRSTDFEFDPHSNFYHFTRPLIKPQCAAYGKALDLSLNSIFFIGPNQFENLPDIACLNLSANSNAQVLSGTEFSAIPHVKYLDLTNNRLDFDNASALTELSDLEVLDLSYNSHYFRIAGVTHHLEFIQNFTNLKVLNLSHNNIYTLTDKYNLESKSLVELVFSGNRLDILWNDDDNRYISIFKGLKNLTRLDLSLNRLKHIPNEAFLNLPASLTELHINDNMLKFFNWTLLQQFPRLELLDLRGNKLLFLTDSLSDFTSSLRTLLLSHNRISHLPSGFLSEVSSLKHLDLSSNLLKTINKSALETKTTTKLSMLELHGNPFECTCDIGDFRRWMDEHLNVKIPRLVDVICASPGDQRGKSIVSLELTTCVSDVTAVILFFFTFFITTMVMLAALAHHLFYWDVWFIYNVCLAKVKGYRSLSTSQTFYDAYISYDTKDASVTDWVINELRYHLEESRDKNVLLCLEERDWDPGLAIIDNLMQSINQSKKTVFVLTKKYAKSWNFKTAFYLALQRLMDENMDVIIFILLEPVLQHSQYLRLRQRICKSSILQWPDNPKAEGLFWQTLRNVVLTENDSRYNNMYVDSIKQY
Kind of assay: TLR8 inhibition reporter assay (HEK-Blue cells, SEAP reporter, R848 stimulation). The conditions noted are these: HEK-Blue cells overexpressing human TLR8, SEAP reporter, R848 15.9 μM. The protocol:
(§1) TLR7/8/9 Inhibition Reporter Assays
(§2) HEK-Blue™-cells (Invivogen) overexpressing human TLR7, TLR8 or TLR9 receptors were used for screening inhibitors of these receptors using an inducible SEAP (secreted embryonic alkaline phosphatase) reporter gene under the control of the IFN-β minimal promoter fused to five NF-κB and AP-1-binding sites. Briefly, cells are seeded into Greiner 384 well plates (15000 cells per well for TLR7, 20,000 for TLR8 and 25,000 for TLR9) and then treated with test compounds in DMSO to yield a final dose response concentration range of 0.05 nM-50 μM. After a 30 minute compound pre-treatment at room temperature, the cells are then stimulated with a TLR7 ligand (gardiquimod at a final concentration of 7.5 μM), TLR8 ligand (R848 at a final concentration of 15.9 μM) or TLR9 ligand (ODN2006 at a final concentration of 5 nM) to activate NF-κB and AP-1 which induce the production of SLAP After a 22 hour incubation at […], SLAP levels are determined with the addition of HLK-Blue™ Detection reagent (Invivogen), a cell culture medium that allows for detection of SLAP, according to manufacturer's specifications. The percent inhibition is determined as the […] in the HEK-Blue signal present in wells treated with agonist plus DMSO alone compared to wells treated with a known inhibitor.
Background: Reporter assays use an easily measured gene product as a stand-in for the process of interest.

In assay [2] the target is T2, human TLR9 (Homo sapiens, UniProt Q9NR96).
T2 construct: host or cells: HEK-Blue cells (HEK293-derived reporter line)
T2 sequence (Q9NR96 26-1032): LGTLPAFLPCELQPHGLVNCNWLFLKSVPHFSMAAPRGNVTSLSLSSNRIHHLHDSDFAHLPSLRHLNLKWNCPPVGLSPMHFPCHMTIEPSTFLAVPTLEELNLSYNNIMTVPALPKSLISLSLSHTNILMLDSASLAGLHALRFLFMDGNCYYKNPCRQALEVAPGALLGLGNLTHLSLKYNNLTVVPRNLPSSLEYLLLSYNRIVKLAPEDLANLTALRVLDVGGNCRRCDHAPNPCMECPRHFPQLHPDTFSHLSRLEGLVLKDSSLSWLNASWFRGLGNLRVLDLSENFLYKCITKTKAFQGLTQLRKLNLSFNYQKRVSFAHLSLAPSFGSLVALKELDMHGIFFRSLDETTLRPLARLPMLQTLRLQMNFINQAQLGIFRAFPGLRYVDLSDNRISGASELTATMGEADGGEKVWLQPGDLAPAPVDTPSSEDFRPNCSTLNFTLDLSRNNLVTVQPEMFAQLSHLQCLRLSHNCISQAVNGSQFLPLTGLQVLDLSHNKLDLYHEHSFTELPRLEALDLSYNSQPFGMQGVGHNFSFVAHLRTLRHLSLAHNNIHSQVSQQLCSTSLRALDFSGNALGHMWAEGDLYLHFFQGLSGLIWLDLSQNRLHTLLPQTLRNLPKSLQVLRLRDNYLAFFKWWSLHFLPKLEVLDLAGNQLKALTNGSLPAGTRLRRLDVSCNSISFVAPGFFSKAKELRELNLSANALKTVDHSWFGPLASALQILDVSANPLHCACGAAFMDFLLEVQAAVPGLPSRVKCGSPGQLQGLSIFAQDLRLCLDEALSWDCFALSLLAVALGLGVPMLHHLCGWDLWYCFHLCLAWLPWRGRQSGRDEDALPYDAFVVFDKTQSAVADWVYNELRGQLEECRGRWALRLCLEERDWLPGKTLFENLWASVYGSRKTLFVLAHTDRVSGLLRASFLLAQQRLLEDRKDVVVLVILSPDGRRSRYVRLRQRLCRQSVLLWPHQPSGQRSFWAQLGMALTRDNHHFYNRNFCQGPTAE
Kind of assay: TLR9 inhibition reporter assay (HEK-Blue cells, SEAP reporter, ODN2006 stimulation). The conditions noted are these: HEK-Blue cells overexpressing human TLR9, SEAP reporter, ODN2006 5 nM. How it is done: as §1, §2

In assay [3] the target is T3, human TLR7 (Homo sapiens, UniProt Q9NYK1).
T3 construct: host or cells: HEK-Blue cells (HEK293-derived reporter line)
T3 sequence (Q9NYK1 27-1049): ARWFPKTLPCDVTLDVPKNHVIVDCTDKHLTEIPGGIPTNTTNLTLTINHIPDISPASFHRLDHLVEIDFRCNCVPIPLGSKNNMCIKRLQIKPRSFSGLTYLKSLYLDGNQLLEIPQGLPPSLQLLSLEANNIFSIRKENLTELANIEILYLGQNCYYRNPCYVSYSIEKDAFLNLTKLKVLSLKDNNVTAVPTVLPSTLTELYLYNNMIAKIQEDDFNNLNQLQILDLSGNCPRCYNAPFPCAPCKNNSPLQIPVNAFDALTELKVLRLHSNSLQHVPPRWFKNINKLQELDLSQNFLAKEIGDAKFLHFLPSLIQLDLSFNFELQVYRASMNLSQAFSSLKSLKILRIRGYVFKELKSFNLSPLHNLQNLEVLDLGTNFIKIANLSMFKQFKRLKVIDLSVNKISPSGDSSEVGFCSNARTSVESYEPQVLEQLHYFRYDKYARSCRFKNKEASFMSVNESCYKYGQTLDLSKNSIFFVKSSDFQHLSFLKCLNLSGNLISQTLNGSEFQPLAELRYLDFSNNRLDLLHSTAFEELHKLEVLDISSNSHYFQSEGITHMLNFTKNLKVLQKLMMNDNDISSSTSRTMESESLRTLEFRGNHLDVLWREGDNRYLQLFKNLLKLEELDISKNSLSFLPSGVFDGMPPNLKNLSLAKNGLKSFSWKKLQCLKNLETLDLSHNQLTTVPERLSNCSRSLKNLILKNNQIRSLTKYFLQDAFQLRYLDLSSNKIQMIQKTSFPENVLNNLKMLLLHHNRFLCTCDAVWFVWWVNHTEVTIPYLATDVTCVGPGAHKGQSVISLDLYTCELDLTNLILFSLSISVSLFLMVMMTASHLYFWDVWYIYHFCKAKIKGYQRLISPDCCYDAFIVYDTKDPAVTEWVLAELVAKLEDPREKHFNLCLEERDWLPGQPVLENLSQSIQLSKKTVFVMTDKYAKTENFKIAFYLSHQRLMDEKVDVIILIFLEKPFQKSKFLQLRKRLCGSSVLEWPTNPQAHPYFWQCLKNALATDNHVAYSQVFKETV
As to the kind of experiment: TLR7 inhibition reporter assay (HEK-Blue cells, SEAP reporter, gardiquimod stimulation). The settings on record: HEK-Blue cells overexpressing human TLR7, SEAP reporter, gardiquimod 7.5 μM. How it is done: as §1, §2

Regarding `COC(=O)C1CC(N2CCC(c3ccc4[nH]c(-c5ccnc6[nH]ncc56)c(C(C)C)c4c3)CC2)CCN1` (centres unmarked) [Example 825, methyl 4-(3-isopropyl-2-(1H-pyrazolo[3,4-b]pyridin-4-yl)-1H-indol-5-yl)-[1,4′-bipiperidine]-2′-carboxylate], the IC50 – broadly, the concentration that gives 50% inhibition – in assay [1] was less than 100 nM; in assay [2], 100 to 1000 nM.
For `CNCCN1CCC(c2ccc3[nH]c(-c4cnc5ccccc5c4)c(C)c3c2)CC1` [Example 664, N-methyl-2-(4-(3-methyl-2-(quinolin-3-yl)-1H-indol-5-yl)piperidin-1-yl)ethan-1-amine] the same measures were greater than 3130 nM and 100 to 1000 nM.
As for `COc1cc(-c2[nH]c3ccc(C4CCNCC4)cc3c2C(C)C)cn2cc(C(=O)N(C)C)nc12` [Example 263, 6-(3-isopropyl-5-(piperidin-4-yl)-1H-indol-2-yl)-8-methoxy-N,N-dimethylimidazo[1,2-a]pyridine-2-carboxamide], the results for the IC50 in assay [1] and in assay [2] were less than 100 nM and 1000 to 50000 nM, respectively.
As for `CC(C)c1c(-c2ccnc3[nH]ncc23)[nH]c2ccc(C3CCN(Cc4ccncc4Cl)CC3)cc12` [Example 923, 4-(5-(1-((3-chloropyridin-4-yl)methyl)piperidin-4-yl)-3-isopropyl-1H-indol-2-yl)-1H-pyrazolo[3,4-b]pyridine], the IC50 in assay [3] and in assay [1] was 100 to 1000 nM throughout.
For `Cc1cn2cc(-c3[nH]c4ccc(C5CCNCC5)cc4c3CC(F)F)ccc2n1` [Example 129, 6-(3-(2,2-difluoroethyl)-5-(piperidin-4-yl)-1H-indol-2-yl)-2-methylimidazo[1,2-a]pyridine], the figures for the IC50 in assay [3] and in assay [2] were less than 100 nM and 100 to 1000 nM, respectively.
For the compound `Cc1c(-c2ccnc3[nH]nnc23)[nH]c2ccc(C3CCNCC3)cc12` [Example 233, 7-(3-methyl-5-(piperidin-4-yl)-1H-indol-2-yl)-3H-[1,2,3] triazolo[4,5-b]pyridine], the IC50 in assay [3] and in assay [1] was 1000 to 50000 nM throughout.
In the case of `Cc1c(-c2ncnc3c2cnn3C)[nH]c2ccc(C3CCN(C4CCN(C(C)C)CC4)CC3)cc12` [Example 818, 4-(5-(1′-isopropyl-[1,4′-bipiperidin]-4-yl)-3-methyl-1H-indol-2-yl)-1-methyl-1H-pyrazolo[3,4-d]pyrimidine], the IC50 is greater than 3130 nM in assay [1] and 100 to 1000 nM in assay [2].
For the compound `Cc1cc(-c2[nH]c3ccc(C4CCN(C(=O)C[C@H](C)O)CC4)cc3c2C(C)C)cn2nnnc12` [Example 593, (S)-3-hydroxy-1-(4-(3-isopropyl-2-(8-methyltetrazolo[1,5-a]pyridin-6-yl)-1H-indol-5-yl)piperidin-1-yl)butan-1-one], the IC50 in assay [3] and in assay [1] was less than 100 nM in each case.
As for `CCc1c(-c2cccc3c2cnn3C)[nH]c2ccc(C3CCN(C(=O)CN4CCCN(C)CC4)CC3)cc12` [Example 521, 1-(4-(3-ethyl-2-(1-methyl-1H-indazol-4-yl)-1H-indol-5-yl)piperidin-1-yl)-2-(4-methyl-1,4-diazepan-1-yl)ethan-1-one], the IC50 is greater than 50000 nM in assay [1] and 1000 to 50000 nM in assay [2].
Regarding `Cc1c(-c2[nH]c3ccc(C4CCNCC4)cc3c2C(C)C)ccc2nccn12` [Example 111, 6-(3-isopropyl-5-(piperidin-4-yl)-1H-indol-2-yl)-5-methylimidazo[1,2-a]pyridine], the IC50 in assay [3] was less than 100 nM; in assay [1], 100 to 1000 nM.
With `CNCC(=O)N1CCC(c2ccc3[nH]c(-c4ccc5nc(C)cn5c4)c(CC(F)F)c3c2)CC1` [Example 550, 1-(4-(3-(2,2-difluoroethyl)-2-(2-methylimidazo[1,2-a]pyridin-6-yl)-1H-indol-5-yl)piperidin-1-yl)-2-(methylamino)ethan-1-one], the figures for the IC50 in assay [3] and in assay [2] were less than 100 nM and 100 to 1000 nM, respectively.
On to `CNC(=O)CN1CCC(c2ccc3[nH]c(-c4ccc5nc(C)cn5c4)c(CC(F)F)c3c2)CC1` [Example 417, 2-(4-(3-(2,2-difluoroethyl)-2-(2-methylimidazo[1,2-a]pyridin-6-yl)-1H-indol-5-yl)piperidin-1-yl)-N-methylacetamide], for which the IC50 is less than 100 nM in assay [3] and 100 to 1000 nM in assay [2].
Regarding `COc1cc(-c2[nH]c3ccc(C4CCN(CCS(C)(=O)=O)CC4)cc3c2C(C)C)cn2ccnc12` [Example 801, 6-(3-isopropyl-5-(1-(2-(methylsulfonyl)ethyl)piperidin-4-yl)-1H-indol-2-yl)-8-methoxyimidazo[1,2-a]pyridine], the IC50 in assay [1] is less than 100 nM; in assay [2], 1000 to 50000 nM.

These data come from patent US11739098B2 (BRISTOL-MYERS SQUIBB COMPANY, priority 2017, dated 2023).
